The text below walks through data of patent US11407765B2, “Tetracyclic heteroaryl compounds” (AstraZeneca AB, priority 2018, dated 2022).

The target of assay [1] is T1, KRasG12C (Homo sapiens, UniProt P01116, G12C).
T1 construct: biotin (biotinylated); made in house
Description: KRasG12C functional assay (HTRF, SOS-mediated nucleotide exchange / Raf RBD binding). In kind it is biochemical. The note with it: 4 hrs incubation with GDP loaded biotinylated KRasG12C, single experiment or average of two or more. The procedure:
KRasG12C Functional Assay
All enzyme and substrate solutions were prepared in assay buffer containing 20 mM HEPES (pH 7.5), 5 mM MgCl2, 150 mM NaCl, and 0.01% Tween 20. […] In a separate mix 20 nM GST-Raf Ras binding domain (GST-Raf RBD, purified in house) and 4 μg/ml anti-GST XL665 antibody (Cisbio) was prepared in assay buffer containing 50 mM Potassium Fluoride and 0.05 mg/ml BSA and equilibrated for 4 hours before adding 0.6 μM Guanosine 5′-[γ-thio]triphosphate (GTPγS, Sigma) and 0.08 μM SOS (purified in house). 5 μl of the GST-RAF RBD mix was then dispensed into each well of the assay plate. […] This is detected simultaneously via the specific binding interaction between active GTPγS KRas^G12C with GST-Raf RBD which brings the europium and XL665 into close proximity enabling an increased FRET signal to be detected on a Pherastar (BMG) plate reader equipped with the HTRF filter module. […] IC50 values were calculated from normalised dose-response response FRET data curve fitted in Genedata screener (Basel, Switzerland).
(Time-resolved FRET reads energy transfer from a long-lived donor to a nearby acceptor.)

Assay [2] addresses T1, KRasG12C. The experiment in a line: KRasG12C mass spectrometry adducting assay. The note with it: 10 μM test compound, 4 μM GDP loaded KRasG12C, 4 hours. In kind it is binding. The procedure: KRasG12C Mass Spectrometry Adducting Assay
Enzyme solutions were prepared in assay buffer containing 20 mM HEPES (pH 7.5), 5 mM MgCl2, and 150 mM NaCl. […] The plate was sealed before reading on a Xevo G2 QTOF (Waters) and Acquity LC system (Waters). 10 μl of sample was injected onto a Xbridge BEH300; C4; 3.5 um; 2.1×50 mm column (Waters) running a 3 minute gradient. Blank samples were run in between each test sample.
Data was analysed in Mass Lynx software (Waters), the Total ion count (TIC) trace was used and the eluted protein peak data combined. Using the combined spectrum the data was deconvoluted using MaxEnt1 method. The peak area for apo-protein KRas^G12C (APO) and KRAS+relative cmpd mass (adduct) were measured, and a percentage adduct was calculated using the following calculation: Percent adduct=100*(area of adduct peak/(sum of APO+adduct peaks)

[3] abbreviates: read-out: KRasG12C functional assay IC50 value.
Where [4] appears, read: KRasG12C functional assay IC50 value.

Read-outs that look alike come from different tables or passages of the source.

T1 sequence (P01116 1-188 isoform P01116-2 G12C): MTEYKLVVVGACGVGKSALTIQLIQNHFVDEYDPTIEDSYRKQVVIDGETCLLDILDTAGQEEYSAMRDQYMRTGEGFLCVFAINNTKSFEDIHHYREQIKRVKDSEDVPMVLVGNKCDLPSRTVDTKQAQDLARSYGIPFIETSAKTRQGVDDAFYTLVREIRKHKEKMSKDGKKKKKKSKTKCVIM

For `C=CC(=O)N1CCN2c3ncnc4c(Cl)c(-c5c(O)cccc5F)c(F)c(c34)OC[C@@H]2C1` (single isomer, unassigned) [Example 45], the IC50 (as a rule, the concentration at which inhibition is half-maximal) at KRasG12C [1] (setting [3]) was 89 nM.

Regarding `C=CC(=O)N1CCN2c3ncnc4c(F)c(-c5c(C)ccc6cc[nH]c(=O)c56)c(Cl)c(c34)OC[C@@H]2C1` (single isomer, unassigned) [Example 16], the IC50 at KRasG12C [1] (setting [3]) came out at 10 nM. Moreover, the “KRasG12C M. S. Binding Mean adduct %” value at KRasG12C [2] was found to be 91%.

As to `C=CC(=O)N1CCN2c3ncnc4c(F)c(-c5c(F)ccc6[nH]cnc56)c(Cl)c(c34)OC[C@@H]2C1` (single isomer, unassigned) [Example 20], the IC50 on KRasG12C [1] (setting [3]) was 29 nM. Moreover, the “KRasG12C M. S. Binding Mean adduct %” value at KRasG12C [2] amounted to 100%.

Take `C=CC(=O)N1C[C@H]2COc3c(Cl)c(-c4c(C)ccc5cc[nH]c(=O)c45)c(F)c4ncnc(c34)N2C[C@H]1C` (single isomer, unassigned) [Example 48]: on KRasG12C [1] (setting [3]), the IC50 amounted to 46 nM.

For the compound `C=CC(=O)N1CCN2c3ncnc4c(F)c(-c5c(F)ccc6cc[nH]c(=O)c56)c(Cl)c(c34)OC[C@@H]2C1` (single isomer, unassigned) [Example 28], the IC50 at KRasG12C [1] (setting [3]) amounted to 5 nM. Besides, the “KRasG12C M. S. Binding Mean adduct %” value at KRasG12C [2] turned out to be 92%.

As to `C=CC(=O)N1CCN2c3ncnc4c(F)c(-c5c(F)ccc6c5ncn6C)c(Cl)c(c34)OC[C@@H]2C1` (single isomer, unassigned) [Example 25], on KRasG12C [1] (setting [3]), the concentration for half-maximal inhibition (IC50) is 13900 nM.

For the compound `C=CC(=O)N1CCN2c3ncnc4c(F)c(-c5c(C)ccc6nc[nH]c(=O)c56)c(Cl)c(c34)OC[C@@H]2C1` (single isomer, unassigned) [Example 6], the IC50 on KRasG12C [1] (setting [3]) was determined as 98 nM. Besides, the “KRasG12C M. S. Binding Mean adduct %” value at KRasG12C [2] is 95%.

Regarding `C=CC(=O)N1C[C@@H]2CCOc3c(Cl)c(-c4c(O)cccc4F)c(F)c4ncnc(c34)N2C[C@@H]1C` (single isomer, unassigned) [Example 42], at KRasG12C [1] (setting [4]), the IC50 turned out to be 111 nM. Besides, the “KRasG12C M. S. Binding Mean adduct %” value on KRasG12C [2] worked out at 95.528%.

On to `C=CC(=O)N1CCN2c3ncnc4c(F)c(-c5c(F)ccc6c5ncn6C)c(Cl)c(c34)OC[C@@H]2C1` (single isomer, unassigned) [Example 24], for which the IC50 on KRasG12C [1] (setting [3]) came out at 97 nM. The “KRasG12C M. S. Binding Mean adduct %” value on KRasG12C [2] stood at 99%.

`C=CC(=O)N1C[C@H]2CCOc3c(Cl)c(-c4c(O)cccc4F)c(F)c4ncnc(c34)N2C[C@H]1C` (single isomer, unassigned) [Example 40] showed an IC50 on KRasG12C [1] (setting [4]) of 2540 nM.

In the case of `C=CC(=O)N1CCN2c3ncnc4c(F)c(-c5c(C)ccc6cc[nH]c(=O)c56)c(Cl)c(c34)OCCC2C1` (single isomer, unassigned) [Example 35, 8-[3-Chloro-1-fluoro-8-(prop-2-enoyl)-6,6a,7,8,9,10-hexahydro-5H-pyrazino[1′,2′:5,6][1,5]oxazocino[4,3,2-de]quinazolin-2-yl]-7-methylisoquinolin-1(2H)-one], the concentration for half-maximal inhibition (IC50) at KRasG12C [1] (setting [3]) amounted to 8510 nM.

As to `C=CC(=O)N1C[C@H]2COc3c(Cl)c(-c4c(C)ccc5[nH]cnc45)c(F)c4ncnc(c34)N2C[C@H]1C` (single isomer, unassigned) [Example 47], the half-inhibitory concentration (IC50) on KRasG12C [1] (setting [3]) amounted to 11200 nM.

Turning to `C=CC(=O)N1CCN2c3ncnc4c(F)c(-c5c(C)ccc6cc[nH]c(=O)c56)c(Cl)c(c34)OCCC2C1` (single isomer, unassigned) [Example 34, 8-[3-Chloro-1-fluoro-8-(prop-2-enoyl)-6,6a,7,8,9,10-hexahydro-5H-pyrazino[1′,2′:5,6][1,5]oxazocino[4,3,2-de]quinazolin-2-yl]-7-methylisoquinolin-1(2H)-one], the concentration for half-maximal inhibition (IC50) at KRasG12C [1] (setting [3]) is 1210 nM.

In the case of `C=CC(=O)N1CCN2c3ncnc4c(F)c(-c5c(C)ccc6cc[nH]c(=O)c56)c(Cl)c(c34)OCCC2C1` (single isomer, unassigned) [Example 37, 8-[3-Chloro-1-fluoro-8-(prop-2-enoyl)-6,6a,7,8,9,10-hexahydro-5H-pyrazino[1′,2′:5,6][1,5]oxazocino[4,3,2-de]quinazolin-2-yl]-7-methylisoquinolin-1(2H)-one], the IC50 at KRasG12C [1] (setting [3]) worked out at 180 nM.

Take `C=CC(=O)N1CCN2c3ncnc4c(F)c(-c5c(C)cccc5O)c(Cl)c(c34)OC[C@@H]2C1` (single isomer, unassigned) [Example 12]: the IC50 on KRasG12C [1] (setting [3]) was found to be 31 nM. For the same compound, the “KRasG12C M. S. Binding Mean adduct %” value at KRasG12C [2] is on record as 95%.

Turning to `C=CC(=O)N1CCN2c3ncnc4c(F)c(-c5c(C)cccc5O)c(Cl)c(c34)OC[C@@H]2C1` (single isomer, unassigned) [Example 13], the half-inhibitory concentration (IC50) on KRasG12C [1] (setting [3]) is 9700 nM.

As to `Cc1ccc2[nH]ncc2c1-c1c(Cl)c2c3c(ncnc3c1F)N1CCN(C(=O)/C=C/CN(C)C)C[C@H]1CO2` (single isomer, unassigned) [Example 31], the IC50 on KRasG12C [1] (setting [3]) amounted to 6830 nM.

Take `C=CC(=O)N1C[C@H]2COc3c(Cl)c(-c4c(C)ccc5cc[nH]c(=O)c45)c(F)c4ncnc(c34)N2C[C@H]1C` (single isomer, unassigned) [Example 49]: the half-inhibitory concentration (IC50) at KRasG12C [1] (setting [3]) stood at 30000 nM.

For `CN(C)C/C=C/C(=O)N1CCN2c3ncnc4c(F)c(-c5c(O)cccc5F)c(Cl)c(c34)OC[C@@H]2C1` (single isomer, unassigned) [Example 15], the IC50 on KRasG12C [1] (setting [3]) was found to be 19700 nM.

`C=CC(=O)N1C[C@H]2CCOc3c(Cl)c(-c4c(O)cccc4F)c(F)c4ncnc(c34)N2C[C@@H]1C` (single isomer, unassigned) [Example 32] returned an IC50 on KRasG12C [1] (setting [4]) of 3130 nM.

Consider `C=CC(=O)N1C[C@@H]2CCOc3c(Cl)c(-c4c(O)cccc4F)c(F)c4ncnc(c34)N2C[C@@H]1C` (single isomer, unassigned) [Example 43], for which the IC50 at KRasG12C [1] (setting [4]) came to 2900 nM.

As for `C=CC(=O)N1C[C@H]2CCOc3c(Cl)c(-c4c(O)cccc4F)c(F)c4ncnc(c34)N2C[C@H]1C` (single isomer, unassigned) [Example 41], the half-inhibitory concentration (IC50) at KRasG12C [1] (setting [4]) amounted to 674 nM.

Consider `C=CC(=O)N1C[C@H]2COc3c(Cl)c(-c4c(C)ccc5[nH]cnc45)c(F)c4ncnc(c34)N2C[C@H]1C` (single isomer, unassigned) [Example 46], for which the IC50 at KRasG12C [1] (setting [3]) came out at 59 nM.

On to `C=CC(=O)N1CCN2c3ncnc4c(F)c(-c5c(F)ccc6[nH]nnc56)c(Cl)c(c34)OC[C@@H]2C1` (single isomer, unassigned) [Example 27], for which the IC50 at KRasG12C [1] (setting [3]) stood at 12000 nM.

For `C=CC(=O)N1CCN2c3ncnc4c(F)c(-c5c(F)ccc6cc[nH]c(=O)c56)c(Cl)c(c34)OC[C@@H]2C1` (single isomer, unassigned) [Example 29], on KRasG12C [1] (setting [3]), the IC50 was 2860 nM.

Consider `C=CC(=O)N1CCN2c3ncnc4c(Cl)c(-c5c(O)cccc5F)c(F)c(c34)OC[C@@H]2C1` (single isomer, unassigned) [Example 44], for which the IC50 at KRasG12C [1] (setting [3]) came out at 62 nM.

`C=CC(=O)N1C[C@H]2CCOc3c(Cl)c(-c4c(O)cccc4F)c(F)c4ncnc(c34)N2C[C@@H]1C` (single isomer, unassigned) [Example 33]: the IC50 at KRasG12C [1] (setting [4]) turned out to be 229 nM.

For the compound `C=CC(=O)N1CCN2c3ncnc4c(F)c(-c5c(C)ccc6cc[nH]c(=O)c56)c(Cl)c(c34)OCCC2C1` (single isomer, unassigned) [Example 36, 8-[3-Chloro-1-fluoro-8-(prop-2-enoyl)-6,6a,7,8,9,10-hexahydro-5H-pyrazino[1′,2′:5,6][1,5]oxazocino[4,3,2-de]quinazolin-2-yl]-7-methylisoquinolin-1(2H)-one], the IC50 at KRasG12C [1] (setting [3]) was 2 nM.

In the case of `C=CC(=O)N1CCN2c3ncnc4c(F)c(-c5c(F)ccc6[nH]cnc56)c(Cl)c(c34)OC[C@@H]2C1` (single isomer, unassigned) [Example 21], the IC50 on KRasG12C [1] (setting [3]) was determined as 1310 nM.

As to `Cc1ccc2[nH]cnc2c1-c1c(Cl)c2c3c(ncnc3c1F)N1C[C@@H](C)N(C(=O)/C=C/CN(C)C)C[C@H]1CO2` (single isomer, unassigned) [Example 51], on KRasG12C [1] (setting [3]), the IC50 stood at 1750 nM.

Take `Cc1ccc2[nH]cnc2c1-c1c(Cl)c2c3c(ncnc3c1F)N1C[C@@H](C)N(C(=O)/C=C/CN(C)C)C[C@H]1CO2` (single isomer, unassigned) [Example 50]: the IC50 at KRasG12C [1] (setting [3]) came to 140 nM.

As to `C=CC(=O)N1CCN2c3ncnc4c(F)c(-c5c(C)ccc6nc[nH]c(=O)c56)c(Cl)c(c34)OC[C@@H]2C1` (single isomer, unassigned) [Example 7], the IC50 at KRasG12C [1] (setting [3]) is 7630 nM.

`C=CC(=O)N1C[C@@H]2CCOc3c(Cl)c(-c4c(O)cccc4F)c(F)c4ncnc(c34)N2C[C@H]1C` (single isomer, unassigned) [Example 38] came in with an IC50 on KRasG12C [1] (setting [4]) of 3650 nM.

With `C=CC(=O)N1CCN2c3ncnc4c(F)c(-c5c(F)ccc6[nH]ncc56)c(Cl)c(c34)OC[C@@H]2C1` (single isomer, unassigned) [Example 23], the IC50 on KRasG12C [1] (setting [3]) came out at 8960 nM.
